Measured values taken from PubChem BioAssay AID342 (DTP/NCI, 2004).
Where “and” joins values, the source holds several entries; their conditions need not be identical. Equal entries are not always repeated.

System: Swiss mice, Sarcoma 180 sc, mean tumor weight T/C
Assay: NCI In Vivo Anticancer Drug Screen. Data for tumor model Sarcoma 180 (subcutaneous) in Swiss mice
Conditions: endpoint: mean tumor weight, higher = larger tumour
How it was run: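 Mice bearing transplanted tumors were treated with compound, and survival or tumor size was measured. Values are expressed as the treated-group measurement (T) divided by the vehicle-treated control measurement (C).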

[1] = dose: 50.0 mg/kg/injection, schedule: Q#A X014 (sc), vehicle: steriod suspending solution

CCNc1nncs1
T/C (dose: 13.7 mg/kg/injection, schedule: Q01DX007 (ip), vehicle: carboxymethylcellulose (CMC)): 59 % of control | T/C (dose: 16.37 mg/kg/injection, schedule: Q01DX007 (ip), vehicle: carboxymethylcellulose (CMC)): 97 % of control and 108 % of control | T/C (dose: 27.5 mg/kg/injection, schedule: Q01DX007 (ip), vehicle: carboxymethylcellulose (CMC)): 58 % of control | T/C (dose: 32.75 mg/kg/injection, schedule: Q01DX007 (ip), vehicle: carboxymethylcellulose (CMC)): 75 % of control and 98 % of control | T/C (dose: 55.0 mg/kg/injection, schedule: Q01DX007 (ip), vehicle: carboxymethylcellulose (CMC)): 47 % of control | T/C (dose: 110.0 mg/kg/injection, schedule: Q01DX007 (ip), vehicle: carboxymethylcellulose (CMC)): 41 % of control | T/C (dose: 131.0 mg/kg/injection, schedule: Q01DX007 (ip), vehicle: carboxymethylcellulose (CMC)): 46 % of control and 71 % of control

CCCOC(=O)C1(N)CCCC1
T/C (dose: 148.0 mg/kg/injection, schedule: Q01DX007 (ip), vehicle: saline): 42 % of control | T/C (dose: 225.0 mg/kg/injection, schedule: Q01DX007 (ip), vehicle: saline): 28 % of control

CN(C)N=Nc1n[nH]nc1C(N)=O
T/C (dose: 31.0 mg/kg/injection, schedule: Q01DX007 (ip), vehicle: carboxymethylcellulose (CMC)): 70 % of control | T/C (dose: 62.0 mg/kg/injection, schedule: Q01DX007 (ip), vehicle: carboxymethylcellulose (CMC)): 84 % of control | T/C (dose: 125.0 mg/kg/injection, schedule: Q01DX007 (ip), vehicle: carboxymethylcellulose (CMC)): 43 % of control

C[C@]12CCC(=O)C[C@H]1CC[C@@H]1[C@@H]2C(=O)C[C@@]2(C)[C@H]1CC[C@]2(C)O
T/C (dose: 5.0 mg/kg/injection, schedule: Q#A X014 (sc), vehicle: steriod suspending solution): 72 % of control | T/C [1]: 78 % of control | T/C (dose: 150.0 mg/kg/injection, schedule: Q#A X014 (sc), vehicle: steriod suspending solution): 110 % of control

CS(=O)(=O)OCCCl
T/C (dose: 6.67 mg/kg/injection, schedule: Q#A X014 (ip), vehicle: carboxymethylcellulose (CMC)): 92 % of control | T/C (dose: 13.35 mg/kg/injection, schedule: Q01DX007 (ip), vehicle: carboxymethylcellulose (CMC)): 117 % of control | T/C (dose: 13.35 mg/kg/injection, schedule: Q#A X014 (ip), vehicle: carboxymethylcellulose (CMC)): 95 % of control | T/C (dose: 26.7 mg/kg/injection, schedule: Q01DX007 (ip), vehicle: carboxymethylcellulose (CMC)): 106 % of control | T/C (dose: 26.7 mg/kg/injection, schedule: Q#A X014 (ip), vehicle: carboxymethylcellulose (CMC)): 86 % of control | T/C (dose: 53.4 mg/kg/injection, schedule: Q01DX007 (ip), vehicle: carboxymethylcellulose (CMC)): 100 % of control | T/C (dose: 106.8 mg/kg/injection, schedule: Q01DX007 (ip), vehicle: carboxymethylcellulose (CMC)): 94 % of control

CO[C@H]1CC[C@@]2(C)C(=CC[C@H]3[C@@H]4C[C@H](O)[C@H](OC)[C@@]4(C)CC[C@@H]32)C1
T/C (dose: 0.25 mg/kg/injection, schedule: Q#A X014 (sc), vehicle: steriod suspending solution): 94 % of control | T/C (dose: 2.5 mg/kg/injection, schedule: Q#A X014 (sc), vehicle: steriod suspending solution): 85 % of control | T/C (dose: 10.0 mg/kg/injection, schedule: Q#A X014 (sc), vehicle: steriod suspending solution): 122 % of control | T/C [1]: 97 % of control

C[C@H](N)C(=O)N[C@@H]1[C@H]2C(=C(O)C[C@@H](O)[C@@H]2O)C(=O)O[C@@H]1C
T/C (dose: 250.0 mg/kg/injection, schedule: Q01DX007 (ip), vehicle: carboxymethylcellulose (CMC)): 66 % of control | T/C (dose: 500.0 mg/kg/injection, schedule: Q01DX007 (ip), vehicle: carboxymethylcellulose (CMC)): 42 % of control | T/C (dose: 1000.0 mg/kg/injection, schedule: Q01DX007 (ip), vehicle: carboxymethylcellulose (CMC)): 12 % of control

CCC(=O)O[C@H]1CC[C@H]2[C@@H]3CCC4=CC(=O)CC[C@]4(C)[C@H]3CC[C@]12C
T/C (dose: 90.0 mg/kg/injection, schedule: Q01DX007 (sc), vehicle: steriod suspending solution): 102 % of control | T/C (dose: 125.0 mg/kg/injection, schedule: Q01DX007 (sc), vehicle: steriod suspending solution): 82 % of control | T/C (dose: 180.0 mg/kg/injection, schedule: Q01DX007 (sc), vehicle: steriod suspending solution): 104 % of control | T/C (dose: 250.0 mg/kg/injection, schedule: Q01DX007 (sc), vehicle: steriod suspending solution): 102 % of control | T/C (dose: 360.0 mg/kg/injection, schedule: Q01DX007 (sc), vehicle: steriod suspending solution): 107 % of control | T/C (dose: 500.0 mg/kg/injection, schedule: Q01DX007 (sc), vehicle: steriod suspending solution): 60 % of control | T/C (dose: 720.0 mg/kg/injection, schedule: Q01DX007 (sc), vehicle: steriod suspending solution): 69 % of control | T/C (dose: 1000.0 mg/kg/injection, schedule: Q01DX007 (sc), vehicle: steriod suspending solution): 64 % of control

O=S(=O)(OCCCl)OCCCl
T/C (dose: 31.2 mg/kg/injection, schedule: Q01DX007 (ip), vehicle: other): 54 % of control | T/C (dose: 62.5 mg/kg/injection, schedule: Q01DX007 (ip), vehicle: other): 66 % of control

C=CCCCCCCCCC(=O)O
T/C (dose: 7.8 mg/kg/injection, schedule: Q01DX007 (ip), vehicle: saline): 109 % of control | T/C (dose: 15.6 mg/kg/injection, schedule: Q01DX007 (ip), vehicle: saline): 118 % of control | T/C (dose: 31.3 mg/kg/injection, schedule: Q01DX007 (ip), vehicle: saline): 122 % of control | T/C (dose: 125.0 mg/kg/injection, schedule: Q01DX007 (ip), vehicle: saline): 90 % of control

CC(=O)Nc1cc2c(cc1[N+](=O)[O-])-c1ccccc1C2O (configuration not stated)
T/C (dose: 98.0 mg/kg/injection, schedule: Q01DX007 (ip), vehicle: other): 100 % of control | T/C (dose: 148.0 mg/kg/injection, schedule: Q01DX007 (ip), vehicle: other): 120 % of control | T/C (dose: 333.0 mg/kg/injection, schedule: Q01DX007 (ip), vehicle: other): 65 % of control and 67 % of control | T/C (dose: 333.0 mg/kg/injection, schedule: Q01DX007 (ip), vehicle: saline): 81 % of control | T/C (dose: 500.0 mg/kg/injection, schedule: Q01DX007 (ip), vehicle: other): 25 % of control | T/C (dose: 500.0 mg/kg/injection, schedule: Q01DX007 (ip), vehicle: saline): 93 % of control | T/C (dose: 750.0 mg/kg/injection, schedule: Q01DX007 (ip), vehicle: saline): 64 % of control

CC(=O)[C@H]1CC[C@H]2[C@@H]3CCC4=CC(=O)[C@H](C)C[C@]4(C)[C@H]3C(=O)C[C@]12C
T/C (dose: 50.0 mg/kg/injection, schedule: Q#A X014 (oral), vehicle: steriod suspending solution): 97 % of control | T/C (dose: 125.0 mg/kg/injection, schedule: Q#A X014 (oral), vehicle: steriod suspending solution): 68 % of control | T/C (dose: 250.0 mg/kg/injection, schedule: Q#A X014 (oral), vehicle: steriod suspending solution): 63 % of control

Nc1nc(=S)c2[nH]cnc2[nH]1
T/C (dose: 0.06 mg/kg/injection, schedule: Q#A X014 (ip), vehicle: carboxymethylcellulose (CMC)): 72 % of control | T/C (dose: 0.12 mg/kg/injection, schedule: Q01DX007 (ip), vehicle: carboxymethylcellulose (CMC)): 78 % of control | T/C (dose: 0.25 mg/kg/injection, schedule: Q01DX007 (ip), vehicle: carboxymethylcellulose (CMC)): 82 % of control | T/C (dose: 0.25 mg/kg/injection, schedule: Q#A X014 (ip), vehicle: carboxymethylcellulose (CMC)): 89 % of control | T/C (dose: 0.5 mg/kg/injection, schedule: Q01DX007 (ip), vehicle: carboxymethylcellulose (CMC)): 97 % of control | T/C (dose: 0.6 mg/kg/injection, schedule: Q01DX007 (ip), vehicle: carboxymethylcellulose (CMC)): 49 % of control | T/C (dose: 0.75 mg/kg/injection, schedule: Q01DX007 (ip), vehicle: carboxymethylcellulose (CMC)): 78 % of control | T/C (dose: 1.0 mg/kg/injection, schedule: Q01DX007 (ip), vehicle: carboxymethylcellulose (CMC)): 22 % of control and 37 % of control | T/C (dose: 1.0 mg/kg/injection, schedule: Q#A X014 (ip), vehicle: carboxymethylcellulose (CMC)): 46 % of control | T/C (dose: 1.5 mg/kg/injection, schedule: Q01DX007 (ip), vehicle: carboxymethylcellulose (CMC)): 33 % of control | T/C (dose: 2.0 mg/kg/injection, schedule: Q01DX007 (ip), vehicle: carboxymethylcellulose (CMC)): 37 % of control and 50 % of control | T/C (dose: 3.0 mg/kg/injection, schedule: Q01DX007 (ip), vehicle: carboxymethylcellulose (CMC)): 25 % of control | T/C (dose: 4.0 mg/kg/injection, schedule: Q#A X014 (ip), vehicle: carboxymethylcellulose (CMC)): 23 % of control | T/C (dose: 6.7 mg/kg/injection, schedule: Q01DX007 (ip), vehicle: carboxymethylcellulose (CMC)): 10 % of control and 15 % of control | T/C (dose: 10.0 mg/kg/injection, schedule: Q01DX007 (ip), vehicle: carboxymethylcellulose (CMC)): 3 % of control | T/C (dose: 187.5 mg/kg/injection, schedule: Q#A X014 (ip), vehicle: carboxymethylcellulose (CMC)): 58 % of control | T/C (dose: 375.0 mg/kg/injection, schedule: Q#A X014 (ip), vehicle: carboxymethylcellulose (CMC)): 51 % of control | T/C (dose: 750.0 mg/kg/injection, schedule: Q#A X014 (ip), vehicle: carboxymethylcellulose (CMC)): 35 % of control | T/C (dose: 1500.0 mg/kg/injection, schedule: Q#A X014 (ip), vehicle: carboxymethylcellulose (CMC)): 16 % of control
